Measurements from PMC9226124, “Macrocycle-stabilization of its interaction with 14-3-3 increases plasma membrane localization and activity of CFTR” (Nature Communications, 2022).
“And” between values parts separate entries of the source, which are not always exact repeats. Identical values can stand only once. “Also recorded” adds a separate entry of the source. Like-named read-outs stand apart in the source and are kept apart here.

Tests used:
[1] = target: T1, 14-3-3/full-length CFTR interaction (Homo sapiens, UniProt P13569, DEL508-508); experiment: Immunoprecipitation (pull-down) from HEK293 cells expressing F508del-CFTR; type: cell-based; conditions: 24 h, 10 μM
T1 construct: expressed in transfected cells; host or cells: HEK 293 cells expressing F508del-CFTR (Carlile et al. 2015)
Method: Background polarization was subtracted from all values, n = 3 technical replicates. g Immunoprecipitation study to show the effect of CY007424 on the interaction between of CFTR and 14-3-3 proteins. CFTR and separately 14-3-3 immunoprecipitation from HEK293 cells expressing F508del-CFTR after 24 h of CY007424 (10μM) (424) or vehicle alone (CON). LYS: cellular lysate prior to preclear, SUP: supernatant after specific bead incubation, PC: second preclear, LW: last wash after the immunoprecipitation IP are the specific antibody beads. IP, upper blot: probed with CFTR AB, lower blot: probed with 14-3-3 AB. Source data are provided as a Source Data file.
CFTR monoclonal-mAb (M3A7, ab270238 abcam) and 14-3-3 monoclonal-Rbt-Ab (Y62, ab32560 abcam) were separately covalently linked to Protein A–Sepharose (Pharmacia, NJ, U.S.A.) by cross-linking with dimethyl pimelimidate (DMP) utilizing standard procedures.
Briefly, Protein A–Sepharose beads were washed two times in 0.2 M sodium borate, pH 9.0 for 5 min each. The beads were then mixed with antibody (for 1 mL of beads use 0.5 mg of antibody). These were placed on a rotator and mixed continuously for 2 h at room temperature (RT). The beads were washed with sodium borate twice, followed by one wash with 0.2 M triethanolamine, pH 8.5. An equal volume of 40 mM DMP in 0.2 M triethanolamine was added. The mixture was mixed for 1 h at RT and the beads then collected. The beads were incubated in 0.2 M ethanolamine, pH 8.2 for 5 min at RT. Beads were washed with the sodium borate solution, and stored at 4 °C until use. Beads were rinsed in lysis buffer before use.
Once HEK 293 cells expressing F508del-CFTR (cells earlier described by Carlile et al. 2015)[29] were treated, they were harvested and immunoprecipitated as follows. Cells were washed twice in sterile TBS, trypsin-treated and transferred to a Falcon tube with media and sera and centrifuged at 800 g at RT for 5 min. Pellets were washed twice in TBS prewarmed to 37 °C and centrifuged at 800–1000 g for 5 min at 4 °C. […]

[2] = target: T2, 14-3-3β/CFTRpS753pS768 complex (Homo sapiens, UniProt P13569+P31946); experiment: Dose-response fluorescence polarization (FP) assay, compound titration; type: binding; conditions: for EC50: 14-3-3β 10 μM, labeled CFTRpS753pS768 100 nM; for FP signal: With 14-3-3
T2 construct: His6 (cleaved yes); made in house; peptide synthetic
Method: The 14-3-3β concentration used for the FP screening assay was 10 μM (dashed line). c HTS FP assay of the Cyclenium library. The samples contain 100 nM of FITC-CFTR_pS753pS768 peptide, 10 μM 14-3-3β, and 50 μM compound. FC-A (100 µM) was added as a positive control and DMSO as the negative control. Hit compounds are defined as a polarization increase which is higher than 20% of the response of FC-A. Red squares are compounds that appeared positive in the negative control without 14-3-3. […] Background polarization was subtracted from all values, n = 3 technical replicates. Compounds selected for further analysis are indicated with an asterisk. e Polarization in the absence of 14-3-3. […] Source data are provided as a Source Data file. […]
The FITC-labeled peptides were dissolved in FP buffer (10 mM HEPES pH 7.4, 150 mM NaCl, 0.1% Tween20, 1 mg/mL BSA) to a final concentration of 100 nM or 10 nM. For the dose-response assays, a 14-3-3β concentration of 10 μM was used while titrating the compounds in a two-times dilution series and, for the other assays, a dilution series of 14-3-3β was made with constant concentration of compound. The dilution series were made in 384 Corning Black Round Bottom well plates and their polarization was measured with a Tecan Infinite F500 plate reader (ex. = 485 nm, em. = 535 nm). The method of fitting of the curves was: “log(agonist) vs. response – Variable slope (four parameters)” from GraphPad Prism. The equation is Y = Bottom + (Top-Bottom)/(1 + 10^((LogEC50-X)*HillSlope)).

T1 sequence (P13569 with tags, fused parts or gaps DEL508-508): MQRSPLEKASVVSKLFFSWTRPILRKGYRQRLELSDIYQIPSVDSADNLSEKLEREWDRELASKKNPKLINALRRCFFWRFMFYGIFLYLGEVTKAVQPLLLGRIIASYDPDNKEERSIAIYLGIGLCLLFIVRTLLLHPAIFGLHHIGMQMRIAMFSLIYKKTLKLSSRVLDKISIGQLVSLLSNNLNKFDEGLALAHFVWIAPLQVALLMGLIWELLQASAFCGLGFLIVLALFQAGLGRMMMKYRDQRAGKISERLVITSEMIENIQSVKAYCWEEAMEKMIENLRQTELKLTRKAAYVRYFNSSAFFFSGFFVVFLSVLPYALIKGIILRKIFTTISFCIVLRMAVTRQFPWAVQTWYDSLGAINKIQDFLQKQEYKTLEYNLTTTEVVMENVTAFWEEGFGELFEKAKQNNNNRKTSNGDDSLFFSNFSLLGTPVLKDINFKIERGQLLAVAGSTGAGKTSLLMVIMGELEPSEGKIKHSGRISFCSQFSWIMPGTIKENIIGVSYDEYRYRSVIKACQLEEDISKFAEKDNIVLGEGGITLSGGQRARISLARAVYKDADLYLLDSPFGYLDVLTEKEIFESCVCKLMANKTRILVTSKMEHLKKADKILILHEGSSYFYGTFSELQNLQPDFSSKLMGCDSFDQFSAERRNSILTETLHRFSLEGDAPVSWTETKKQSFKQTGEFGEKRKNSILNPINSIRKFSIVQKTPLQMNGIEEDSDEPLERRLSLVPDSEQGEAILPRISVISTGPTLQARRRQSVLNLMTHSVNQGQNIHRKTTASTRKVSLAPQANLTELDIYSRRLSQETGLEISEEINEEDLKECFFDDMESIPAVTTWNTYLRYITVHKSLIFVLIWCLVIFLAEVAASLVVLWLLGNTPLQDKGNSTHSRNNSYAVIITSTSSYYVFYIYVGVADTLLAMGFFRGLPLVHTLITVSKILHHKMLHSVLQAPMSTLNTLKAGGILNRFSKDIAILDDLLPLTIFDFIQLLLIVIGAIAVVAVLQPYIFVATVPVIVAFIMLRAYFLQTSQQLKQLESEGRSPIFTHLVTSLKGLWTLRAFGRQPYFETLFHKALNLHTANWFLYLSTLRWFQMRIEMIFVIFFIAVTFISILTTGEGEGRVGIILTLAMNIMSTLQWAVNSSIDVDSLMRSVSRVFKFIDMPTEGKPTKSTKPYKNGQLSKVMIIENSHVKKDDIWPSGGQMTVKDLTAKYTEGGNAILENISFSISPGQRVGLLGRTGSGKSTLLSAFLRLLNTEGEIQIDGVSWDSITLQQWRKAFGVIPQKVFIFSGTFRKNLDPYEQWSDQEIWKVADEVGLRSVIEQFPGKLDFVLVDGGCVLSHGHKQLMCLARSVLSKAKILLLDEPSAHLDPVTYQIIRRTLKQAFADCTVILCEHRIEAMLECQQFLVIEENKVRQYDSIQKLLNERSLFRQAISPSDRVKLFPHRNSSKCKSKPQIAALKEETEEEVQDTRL
T2 sequence (P31946 whole entry): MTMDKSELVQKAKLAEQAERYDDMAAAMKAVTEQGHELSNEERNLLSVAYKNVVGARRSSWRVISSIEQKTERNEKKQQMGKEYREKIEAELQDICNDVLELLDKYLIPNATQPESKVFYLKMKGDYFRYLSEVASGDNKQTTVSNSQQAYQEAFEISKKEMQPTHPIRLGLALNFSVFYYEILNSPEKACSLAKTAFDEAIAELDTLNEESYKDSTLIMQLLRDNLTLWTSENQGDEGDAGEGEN
T2 sequence (P13569 747-774 limits assumed): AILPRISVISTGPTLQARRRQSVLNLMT

Row | FP signal ([2]; compound 476.8 pM) | FP signal ([2]; compound 953.7 pM) | FP signal ([2]; compound 1.90735e-9 M) | FP signal ([2]; compound 3.8147e-9 M) | FP signal ([2]; compound 7.6294e-9 M) | FP signal ([2]; compound 1.52588e-8 M) | FP signal ([2]; compound 3.05176e-8 M) | FP signal ([2]; compound 6.10352e-8 M) | FP signal ([2]; compound 1.2207e-7 M) | FP signal ([2]; compound 2.44141e-7 M) | FP signal ([2]; compound 4.88281e-7 M) | FP signal ([2]; compound 9.76563e-7 M) | FP signal ([2]; compound 1.95313e-6 M) | FP signal ([2]; compound 3.90625e-6 M) | FP signal ([2]; compound 7.8125e-6 M) | FP signal ([2]; compound 1.5625e-5 M) | FP signal ([2]; compound 3.125e-5 M) | FP signal ([2]; compound 6.25e-5 M) | FP signal ([2]; compound 0.000125 M) | FP signal ([2]; compound 0.00025 M) | Compound | other results
1 | 1 | 3 | 2 | 5 | 5 | 4 | 6 | 6 | 3 | 4 | 4 | 5 | 5 | 6 | 10 | 13 | 24 | 59 | 124 | 186 | CC1NC(=O)C(CCCNC(=N)N)NC(=O)C2CCCN2Cc2cccc(c2)-c2ccccc2CNC(=O)C(CCCNC(=N)N)NC1=O (centres unmarked) [CY007476] | stabilizing effect on the 14-3-3/CFTR interaction in cells (pull-down) [1]: did not show a stabilizing effect; also recorded: did not enhance binding of 14-3-3; EC50 ([2]; read-out: EC50): 147 µM; FP signal ([2]; compound 0.0005 M): 230; FP signal ([2]; compound 0.001 M): 257
2 | 4 | 5 | 5 | 7 | 4 | 7 | 6 | 5 | 5 | 7 | 7 | 7 | 6 | 12 | 27 | 52 | 122 | 193 | 244 | 263 | N=C(N)NCCCC1NCc2ccccc2Sc2ccccc2CNC(=O)C(Cc2ccc(O)cc2)NC(=O)C(CCCN)NC1=O (centres unmarked) [CY007424] | stabilizing effect on the 14-3-3/CFTR interaction in cells (pull-down) [1]: stabilizing effect; also recorded: increased CFTR binding to 14-3-3; EC50 ([2]; read-out: EC50): 36.1 µM and 36 µM; FP signal ([2]; compound 0.0005 M): 257; FP signal ([2]; compound 0.001 M): 271
3 | 4 | 5 | 5 | 6 | 4 | 6 | 3 | 5 | 8 | 6 | 5 | 5 | 6 | 7 | 7 | 9 | 18 | 35 | 83 | 142 | CN1CC(=O)NC(CCCNC(=N)N)C(=O)NC(CCC(N)=O)C(=O)NC(CCCNC(=N)N)C(=O)NCc2ccccc2-c2cccc(c2)C1 (centres unmarked) [CY007491] | stabilizing effect on the 14-3-3/CFTR interaction in cells (pull-down) [1]: did not show a stabilizing effect; also recorded: did not enhance binding of 14-3-3; EC50 ([2]; read-out: EC50): 244 µM; FP signal ([2]; compound 0.0005 M): 193; FP signal ([2]; compound 0.001 M): 240
4 | 6 | 6 | 5 | 4 | 7 | 6 | 5 | 4 | 4 | 5 | 6 | 6 | 5 | 8 | 9 | 16 | 30 | 55 | 97 | 149 | NCCCCC1NCc2ccccc2Sc2ccccc2CNC(=O)C(Cc2cccc(Cl)c2)NC(=O)C(Cc2ccc(O)cc2)NC1=O (centres unmarked) [CY007288] | EC50 [2]: False positive; FP signal ([2]; compound 0.0005 M): 194; FP signal ([2]; compound 0.001 M): 224
